Reference: paper PMC11942905, “Identification of a Selective Inhibitor of Human NFS1, a Cysteine Desulfurase Involved in Fe-S Cluster Assembly, via Structure-Based Virtual Screening” (International Journal of Molecular Sciences, 2025)
“Also recorded” adds a separate entry of the source.

Experiments:
[1] = molecular target: T1, human cystathionine-β-synthase (CBS) (Homo sapiens, UniProt P35520); assay: Selectivity assay, H2S-producing activity of CBS; format: biochemical; conditions: at 100 µM
T1 construct: made in house; host or cells: E. coli
T1 sequence (P35520 1-551): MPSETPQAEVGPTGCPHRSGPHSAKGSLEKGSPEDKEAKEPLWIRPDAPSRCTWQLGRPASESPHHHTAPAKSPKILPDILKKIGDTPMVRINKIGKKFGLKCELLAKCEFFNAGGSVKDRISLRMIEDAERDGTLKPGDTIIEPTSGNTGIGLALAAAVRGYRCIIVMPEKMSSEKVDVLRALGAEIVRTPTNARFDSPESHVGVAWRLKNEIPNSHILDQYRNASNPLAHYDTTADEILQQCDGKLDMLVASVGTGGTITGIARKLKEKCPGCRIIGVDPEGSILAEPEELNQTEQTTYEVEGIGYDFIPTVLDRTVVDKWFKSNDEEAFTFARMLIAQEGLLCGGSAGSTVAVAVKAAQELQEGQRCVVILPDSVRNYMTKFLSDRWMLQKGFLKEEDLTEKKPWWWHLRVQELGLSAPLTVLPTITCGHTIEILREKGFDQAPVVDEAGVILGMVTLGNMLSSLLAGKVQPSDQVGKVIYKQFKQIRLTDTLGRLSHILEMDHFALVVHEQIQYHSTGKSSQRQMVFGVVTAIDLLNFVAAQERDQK
Protocol: (§1) To evaluate the selectivity of Compounds 53 and 56, their effects on the activities of two other PLP-dependent enzymes, human cystathionine-β-synthase (CBS) and cystathionine-γ-lyase (CSE), were determined using a H2S-producing assay. Human CBS and CSE were expressed and purified in E. coli with a purity exceeding 90%, as confirmed by SDS-PAGE (Figures S4A and S5A). Subsequently, the H2S-producing activities of CBS and CSE were assessed in the presence of different concentrations of Compounds 53 and 56. A widely used CBS inhibitor, AOAA, and a specific CSE inhibitor, PAG, were used as positive controls (Figures S4B and S5B).
(§2) The H2S-producing activity of CBS was measured as previously described. The reaction mixture (200 μL) contained 50 mM of Hepes buffer (pH 7.4), 2 mM of homocysteine, 10 μM of PLP, 0.4 mM of lead nitrate, and 5 μg of CBS protein. It was preincubated at 37 °C for 3 min, and the reaction was initiated by the addition of 2 mM of cysteine. The reaction was monitored in a multifunctional microplate reader at 37 °C for 10 min. An extinction coefficient of 5500 M^−1 cm^−1 at 390 nm was used to calculate the lead sulfide concentration. The method used to determine CSE activity in the H2S-producing assay was identical to the CBS assay, except that 1 mM of cysteine was used as the sole substrate. […]

[2] = molecular target: T2, cystathionine-γ-lyase (CSE) (Homo sapiens, UniProt P32929); assay: Selectivity assay, H2S-producing activity of CSE; format: biochemical; conditions: at 100 µM
T2 construct: made in house; host or cells: E. coli
Protocol: as §1, §2

A549 cells [3] = assay: CCK-8 cell viability assay, A549; format: cell-based, human; conditions: for IC50: Homo sapiens, A549, CCK-8, 72 h
Protocol: (§3) Human bronchial epithelial cells (BEAS-2B) and human lung adenocarcinoma A549 cells were purchased from the Institute of Biochemistry and Cell Biology, Chinese Academy of Sciences (Shanghai, China). BEAS-2B and A549 cells were cultured in DMEM supplemented with 10% (v/v) fetal bovine serum and 1% (v/v) penicillin–streptomycin solution at 37 °C in a humidified atmosphere containing 5% CO2. The half-maximal inhibitory concentration (IC50) values of the selected compounds against BEAS-2B and A549 cells were determined using the CCK-8 assay. Briefly, the cells were seeded into 96-well culture plates at a density of 5 × 10^3 cells per well. After 12 h of culture, fresh medium containing varying concentrations of the selected compounds dissolved in DMSO was added for an additional 72-hour incubation. Subsequently, 10 μL of CCK-8 solution was added to each well, followed by a further 1.5-h incubation at 37 °C. The optical density at 450 nm (OD450) for each well was measured using a microplate reader. Medium containing DMSO alone was used as the control group. Cell viability was calculated as the percentage of the OD450 of the experimental group compared to that of the control group, which was set at 100%.

BEAS-2B cells = assay: CCK-8 cell viability assay, BEAS-2B; format: cell-based; conditions: Homo sapiens, CCK-8, 72 h
Protocol: as §3

human NFS1 [4] = molecular target: T3, human NFS1 (Homo sapiens, UniProt Q9Y697); assay: NFS1 inhibition assay (H2S-producing, methylene blue); format: biochemical; conditions: for inhibition of NFS1: at 100 µM; for IC50: recombinant human NFS1Δ1-55, 1 mM cysteine, n = 4, read-out: IC50, NFS1 activity
T3 construct: His tag (N); made in house; host or cells: E. coli BL21(DE3)
Protocol: The 42 candidate compounds were tested for their inhibitory effects on human NFS1 using an in vitro H2S-producing assay. […] Subsequently, the effects of the selected compounds (100 µM) on human NFS1 activity were evaluated.
The activity of NFS1 was determined using a methylene blue assay as described previously, with some modifications. Briefly, reaction mixtures (200 μL) containing 50 mM of Tris-HCl (pH 8.0), 10 μM of PLP, 1 mM of DTT, and 10 μg of NFS1 were preincubated at 37 °C for 3 min. The reaction was then initiated by adding 1 mM of cysteine. After 15 min of incubation at 37 °C, the reaction was quenched by adding 25 μL of 20 mM N,N-dimethyl-p-phenylenediamine in 7.2 M of HCl and 25 μL of 30 mM FeCl3 in 1.2 M of HCl. Subsequently, the reaction mixtures were incubated for another 15 min at 37 °C, followed by centrifugation at 12,000 rpm for 10 minutes to remove the precipitates. The absorbance of the supernatant was measured at 670 nm. A reaction mixture without the substrate cysteine was used as the negative control. The H2S concentration was calculated based on a standard curve prepared using various concentrations of sodium sulfide (Na2S).
For the NFS1 inhibition assays, all test compounds were dissolved in dimethyl sulfoxide (DMSO) to prepare 10 mM stock solutions, which were stored at −80 °C. The stock solutions were diluted to the appropriate concentrations with 50 mM of Tris-HCl (pH 8.0) as required for the experiments. A reaction mixture containing DMSO but no test compounds was used as a negative control. The dose-dependent effects of the inhibitors on NFS1 activity were determined using the methylene blue assay described above. The IC50 values of the inhibitors were calculated by adding different concentrations of the inhibitors to the enzyme reaction mixtures.

[5] = tested on: cysteine desulfurase activity of Plasmodium falciparum; parameters: method as in PMID 24709262; conditions: cited from earlier work
A549 cells [6] = assay: Endogenous ROS levels, DCFH-DA fluorescence; format: cell-based, human; conditions: 48 h, Compound 53 50 µM, Erastin 2.5 µM, 2-AAPA 20 µM
Protocol: Endogenous ROS levels in A549 cells were detected using the fluorescent dye DCFH-DA [48, 49]. A549 cells were cultured in DMEM supplemented with 10% fetal bovine serum at 37 °C in a humidified atmosphere containing 5% CO2. […] Subsequently, the cells were washed three times with prewarmed PBS, and fresh medium containing 10 μM of DCFH-DA was added. After 30 min of incubation, the cells were washed again with prewarmed PBS, fresh medium was added, and the cells were imaged using an inverted fluorescence microscope (Leica, Wetzlar, Germany). Images of live cells were acquired in six different fields. ImageJ software was used to analyze the images.

A549 cells [7] = assay: Lipid peroxide (LPO) content; format: cell-based, human; conditions: 48 h, Erastin 2.5 µM, Compound 53 50 µM, 2-AAPA 20 µM, alone or combined
Protocol: A549 cells were seeded in 10 cm dishes at a density of 2 × 10^6 cells per dish and cultured until they reached 40–60% confluence. […] Lipid peroxidation (LPO) levels were measured using a Lipid Peroxide (LPO) Content Assay Kit (Solarbio, China) following the manufacturer’s instructions.

human NFS1 [8] = molecular target: T3, human NFS1; parameters: method as in PMID 36103522; conditions: cited from earlier work

T3 sequence (Q9Y697 56-457): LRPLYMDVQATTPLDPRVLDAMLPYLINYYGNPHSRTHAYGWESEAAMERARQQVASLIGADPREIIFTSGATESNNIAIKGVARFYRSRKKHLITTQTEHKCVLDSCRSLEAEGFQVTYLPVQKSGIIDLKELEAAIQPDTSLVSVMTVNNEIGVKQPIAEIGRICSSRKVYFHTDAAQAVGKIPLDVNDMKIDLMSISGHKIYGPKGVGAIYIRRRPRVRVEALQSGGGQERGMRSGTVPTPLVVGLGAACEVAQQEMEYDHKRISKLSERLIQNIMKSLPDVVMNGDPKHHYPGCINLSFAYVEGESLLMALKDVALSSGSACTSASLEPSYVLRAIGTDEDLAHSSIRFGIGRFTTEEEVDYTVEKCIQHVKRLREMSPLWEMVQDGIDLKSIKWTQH
T2 sequence (P32929 whole entry): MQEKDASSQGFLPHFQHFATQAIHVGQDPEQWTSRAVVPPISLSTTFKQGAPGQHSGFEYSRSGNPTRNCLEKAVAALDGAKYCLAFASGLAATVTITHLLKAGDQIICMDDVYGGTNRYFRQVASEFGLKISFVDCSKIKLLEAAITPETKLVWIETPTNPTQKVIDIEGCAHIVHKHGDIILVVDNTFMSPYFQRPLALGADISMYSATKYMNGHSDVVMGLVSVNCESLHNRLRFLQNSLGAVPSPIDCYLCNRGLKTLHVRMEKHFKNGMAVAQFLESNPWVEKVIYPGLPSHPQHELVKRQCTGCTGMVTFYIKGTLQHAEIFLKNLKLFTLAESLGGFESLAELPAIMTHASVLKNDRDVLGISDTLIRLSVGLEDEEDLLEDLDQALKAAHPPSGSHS

For COc1cc(/C=N/NC(=O)CSc2nnc(SCc3ccccc3)s2)cc(OC)c1O [Compound 56], the “inhibitory effect on CBS” value [1] was “no significant inhibitory effects”, the “inhibitory effect on CSE” value [2] was “no significant inhibitory effects” and the IC50 (A549 cells [3]) was 27.7 ± 1.99 µM. For the same compound, the IC50 (BEAS-2B cells) was 78.4 ± 2 µM.
For O=c1cc(-c2ccc(O)c(O)c2)oc2cc(O[C@H]3O[C@H](CO)[C@@H](O)[C@@H](O)[C@@H]3O)cc(O)c12 [Compound 37], the “inhibition of NFS1” value (human NFS1 [4]) was “approximately 50%” and the IC50 (human NFS1 [4]) was 141 ± 3.49 µM.
For N[C@@H]1CON=C1O [D-cycloserine], the IC50 [5] is listed as about 29 µM.
For COc1cc(/C=N\NC(=O)Cc2nnc(NC(=O)c3ccc([N+](=O)[O-])cc3)s2)ccc1O [Compound 1], the “inhibition of NFS1” value (human NFS1 [4]) was “approximately 50%” and the IC50 (human NFS1 [4]) was 153 ± 3.42 µM.
In the case of CC(=O)NC(CSC(=O)Nc1ccc(NC(=O)SCC(NC(C)=O)C(=O)O)cc1)C(=O)O (stereo not shown) [Compound 2-AAPA, 2-Acetylamino-3-[4-(2-acetylamino-2-carboxyethylsulfanylcarbonylamino)phenylcarbamoylsulfanyl] propionic acid], the “intracellular ROS levels” value (A549 cells [6]) is reported as “significantly elevated cellular ROS levels”, the “intracellular lipid peroxide (LPO) levels” value (A549 cells [7]) is reported as “no significant changes” and the IC50 (A549 cells [3]) is reported as about 20 µM.
In the case of CCOc1ccccc1-n1c(C(C)N2CCN(C(=O)COc3ccc(Cl)cc3)CC2)nc2ccccc2c1=O (stereo not shown) [Erastin], the “intracellular ROS levels” value (A549 cells [6]) is reported as “significantly increased intracellular ROS levels; also recorded: significantly elevated cellular ROS levels”, the “intracellular lipid peroxide (LPO) levels” value (A549 cells [7]) is reported as “elevated LPO levels” and the “effect on cell viability” value (A549 cells [3]; A549 cells, 2.5 µM) is reported as “did not significantly affect cell viability”.
For COCC1(CO)C(=O)C2CCN1CC2 (stereo not shown) [APR-246, eprenetapopt], the “concentrations required to inhibit NFS1” value (human NFS1 [8]) is listed as “millimolar concentrations”.
